Measured values reported in patent US9439916B2, “Composition for decelerating the aging in the organism and for extending the life time thereof and the use of said composition” (MITOTECH SA, priority 2007, dated 2016).

Assays:
Assay type in all cases: in vivo
OXYS rats [1] = experiment: Morris water maze test of learning ability; conditions: 16-month-old OXYS rats, 250 nanomoles per kg of body weight since 1.5 months
Excerpt: The Morris water maze test is actively used for studies on learning and long-term spatial memory in animals. The method of Morris allows to evaluate strategies for behavior, dynamics of skill formation, to detect even weak differences in behavior. This test evaluates the ability of an animal, swimming in the opaque water of the pool and looking at the signs on its sides, to learn how to find the invisible, hidden platform under water, no matter from what point of the perimeter of the pool the animal was released.
In subsequent experiments, 4 groups of 16-month-old animals: control Wistar and OXYS rats, and groups received the preparation since 1.5 months at a dose of 250 nanomoles per kg of body weight, were used. A latent period of time spent by rats to find the platform depended only on the genotype—it took longer in OXYS rats than in Wistar rats—OXYS rats coped worse with the task.

OXYS male rats = experiment: Sexual motivation model: male near receptive female behind a barrier; conditions: one year old OXYS males
Excerpt: […] To do this, an experimental model of sexual arousal was used—males were kept under conditions allowing them to see the receptive female, perceive the female's smell, but excluding physical contact with the female. Under these conditions, male rats and male mice show increase in blood testosterone level and typical motivational behavior.

[2] = tested on: cat with senile generalized progressive retinal dystrophy; experiment: Veterinary clinical trial, senile blindness in a cat; conditions: 15 years, daily instillation of 250 nM SkQ1 solution, pH 6.5
Experimental: A) Patient—cat, breed—European Shorthair, age—15 years. Diagnosis—retinitis, papillitis, senile generalized progressive retinal dystrophy. Clinical signs—depigmentation of t. lucidum, the optic disk (OD) is violet. Retinal detachment. Vision is absent.
Treatment—daily instillation of 250 nM SkQ1 solution (in physiological solution at pH 6.5).

OXYS rats [3] = experiment: Bone tissue state by X-ray densitometry (osteoporosis); conditions: two 45-day courses of 50 nanomoles per kg per day, studied at 6 months
Experimental: Experiments were conducted on the two lines of rats—Wistar and OXYS. Genetically determined metabolic defect, manifesting itself as decreased resistance of OXYS rats towards oxidative stress, leads to changes in their organism which may be regarded as accelerated ageing syndrome. In particular, reduced bone mineral density in OXYS rats, as compared to Wistar rats, is observed. Such changes are also observed in osteoporosis in humans that allows us to consider these animals as an adequate model of senile osteoporosis in humans.
Wistar and OXYS rats,—control rats and those who received two courses of SkQ1 (50 nanomoles per kg of body weight per day), were studied. The animals received the preparation since 1.5 and 4 months of age for 45 days. At the age of 6 months, bone tissue state was studied by X-ray densitometry.

rats = experiment: Behavioral tests "open field" and "elevated cruciform maze"
SHR mice = experiment: Life span of outbred SHR mice receiving SkQ1 with drinking water; conditions: for animals remained alive in 707 days of the experiment: SHR mice, SkQ1 with drinking water lifelong, control 8%
Experimental: (§1) An experiment with outbred SHR mice was carried out. The mice were divided into four groups (25 animals per each group). The three groups received a certain amount of SkQ1 with drinking water throughout their lives, and the fourth (control) group received water without SkQ1. Dose of SkQ1 is given in nanomoles per kg of animal weight per day.
(V. N. Anisimov, I. N. Alimova, D. A. Baturin, I. G. Popovich, M. A. Zabezhinski, S. V. Rosenfeld, K. G. Manton, A. V. Semenchenko, A. I. Yashin (2003) Dose-dependent effect of melatonin on life span and spontaneous tumor incidence in female SHR mice. Exp Gerontol. 38, 449-461).

[4] = tested on: horse with senile blindness; experiment: Veterinary clinical trial, senile blindness in a horse
Excerpt: B) Patient—horse, gelding, not thoroughbred, age—20 years. Diagnosis—senile blindness associated with degeneration of the retina and its vessels. Clinical signs—shortening and thinning of retinal vessels emanating from the optic disk, depigmentation of t. lucidum t. nigrum, thinning of the retina over the entire surface of eye fundus. As a result, Choroid blood vessels in the form of straight lines are well visualized, posterior polar senile cataract is detected. The animal cannot see during the last eight months.
Treatment—daily instillation of 250 nM SkQ1 solution (in physiological solution at pH 6.5), and since the 3rd month of treatment—2 times a day.

female SHR mice = experiment: Age-related changes in estrous function of female SHR mice
Experimental: as §1
With increasing the duration of the observation period, tendency of decelerating age-related disorders in estrous function in experimental animals becomes more pronounced, which were expressed as increase in the duration of cycle and lowering the frequency of regular cycles. For example, in the 2nd cohort in 15-month-old experimental animals received SkQ1 at a dose of 0.01 nanomoles per day, the frequency of regular cycles was 94%, whereas in the control—67%.

Drosophila melanogaster = experiment: Life span of fruit flies, line w1118, fed SkQ1
Experimental: Isogenous laboratory Drosophila line w^1118 in which all individuals have the same genotype was chosen for the experiments, thus eliminating the influence of genetic differences between individuals on the results of experiments. The mitochondria-targeted antioxidant SkQ1 at a concentration of 1.85 nM was tested. Stock SkQ solution was diluted in distilled water. Adult flies were administered the compound throughout their lives. Since adult flies can feed on food located on the surface, it was decided to spread the SkQ1 solution of a corresponding concentration on the surface of freshly prepared medium poured into test tubes containing the flies. Virgin females and males of line w^1118 selected during the day were placed in tubes, each tube contained five individuals (males and females separately), in standard medium. In control tubes, 100 μl of distilled water without SkQ was spread on standard medium surface; in test tubes, 100 μl of the test compound at a selected concentration was spread on standard medium surface. The number of live flies in each tube was recorded daily, once a week flies were transferred to a corresponding fresh medium. All tubes were incubated at 25° C. In each experiment, 100 individuals (20 tubes) were analyzed.

p53 (-/-) mice = experiment: Life span of p53 gene knockout mice; conditions: 0.1 nmoles per mouse per day (5 nM/kg/day) with drinking water
Excerpt: Mice lacking the p53 gene (p53−/−) can not synthesize the p53 protein, so-called “guardian of the genome”, and can serve as a model of accelerated ageing and death of the organism caused by cancer [for more details, see A. A. Sablina, A. V. Budanov, G. V. Ilyinskaya, L. S. Agapova, J. E. Kravchenko, P. M. Chumakov (2005) The antioxidant function of the p53 tumor suppressor //Nature Med., 11, 1306-1313)].
Based on the previously conducted PCR analysis detecting p53−/−, p53+/− and p53+/+ mice in the progeny of heterozygous (p53+/−) animals, the two groups of mice were drawn up which received: • clean drinking water; • water supplemented with SkQ1 (0.1 nmoles of the preparation per mouse per day (5 nM/kg/day)).

CC1=C(C)C(=O)C(CCCCCCCCCC[P+](c2ccccc2)(c2ccccc2)c2ccccc2)=CC1=O [SkQ1]
ability to learn (latent period to find the platform in the Morris maze) (OXYS rats [1]): improved the ability of OXYS rats to learn
time spent by a male rat near a female rat separated by a barrier (OXYS male rats; 50 nanomoles of SkQ1, versus control males): reliably increased
time spent by a male rat near a female rat separated by a barrier (OXYS male rats; 250 nanomoles of SkQ1, versus control males): reliably increased
vision after 10 days of the treatment [2]: the pupil began to respond to light, the cat began to play with the ball and see even small objects
vision after 21 days of the treatment [2]: vision retained
bone mineral density of femur and tibia (OXYS rats [3]): reliably increased
total mass of bone tissue (OXYS rats [3]): reliably increased
stress-protective effect (rats; Wistar rats): clear stress-protective effect
search and exploratory activity of rats (rats; open field and elevated cruciform maze): positive effect
animals remained alive in 707 days of the experiment (SHR mice; first of three test groups (dose not given)): 36%
animals remained alive in 707 days of the experiment (SHR mice; second of three test groups (dose not given)): 28%
animals remained alive in 707 days of the experiment (SHR mice; third of three test groups (dose not given)): 24%
life span of SHR mice (SHR mice; optimal doses (1 nanomole per animal per day), versus control): much longer life span
vision after 90 days of the treatment ([4]; 20 years, instillation of 250 nM SkQ1 solution daily, 2 times a day since 3rd month): The vision was restored
growth of new blood vessels from the optic disk ([4]; after 90 days of the treatment with 250 nM SkQ1 instillation): 40
frequency of regular estrous cycles (female SHR mice; 2nd cohort, 15-month-old female SHR mice, 0.01 nanomoles per day, control 67%): 94%
age-related changes in estrous function (female SHR mice; female SHR mice received SkQ1, compared to the control group): less pronounced age-related changes in estrous function
fraction of individuals aged 70 days and older (Drosophila melanogaster; 1.85 nM SkQ1, control 0.18, P=0.0056): 0.48
average life expectancy (Drosophila melanogaster; 1.85 nM SkQ1 on medium surface, 25° C., control 58 days, P=0.0012): 66 days
life span of p53 (-/-) mice (p53 (-/-) mice): dramatic increase of the life span
